Data from patent US7318917B2, “Rapid assays for neurotransmitter transporters” (Vanderbilt University, priority 2002, dated 2008).

Experiments:
[1] = target: T1, NET (Homo sapiens, UniProt P23975); type: cell-based; design: expressed in transfected cells; conditions: FLEXstation, FIG. 10A
Experimental: Medium for the transfected lines was supplemented with G418 (250 μg/ml). Trypsin, glutamine, penicillin, streptomycin, G418, and phosphate-free DMEM were purchased from Life Technologies, Inc. or obtained from the Vanderbilt Media Core. For all transport assays, cells were plated on poly-D-lysine (0.1 mg/ml)-coated (0.1 mg/ml)-coated 96-well plates. HEK cells were plated at 12,500 cells per well in 96 well plates, HEK-DAT cells were plated at 15,000 cells per well, HEK-NET cells were plated at 20,000 per well, and HEK-SERT cells were plated at 20,000 per well in a volume of 200 uL. HEK, HEK-DAT, and HEK-SERT cells were grown for 48 hours and HEK-NET cells were grown for 72 hours to a confluency of ˜90%.
ASP^+ was obtained from Molecular Probes, Inc. and dissolved in KRH buffer to indicated concentrations. Trypan Blue was obtained from Sigma as a 0.4% solution and diluted to a final concentration of 30 uM in KRH buffer.
To limit the time delay between the addition of ASP^+ and the measurement of accumulation of ASP^+ during the kinetic assays, plates were divided in half and assayed one half at a time. At assay, the medium was removed from wells in the first 6 columns by aspiration, and the cells were incubated with Trypan Blue in KRH buffer for 20 minutes at 37° C.in room air. Then, medium was removed from the wells in the last 6 columns and replaced with Trypan Blue in KRH buffer.

[2] = target: T1, NET; experiment: ASP+ accumulation in HEK-hNET cells by confocal fluorescence microscopy (phase I binding, phase II transport)
[3] = target: DAT (Homo sapiens, UniProt Q01959); experiment: ASP+ accumulation in hDAT-transfected HEK cells by confocal fluorescence microscopy; type: cell-based; design: expressed in transfected cells; host or cells: HEK-293; conditions: 2 mM ASP as printed in the FIG. 3 legend
Chain of DAT (Q01959 whole entry): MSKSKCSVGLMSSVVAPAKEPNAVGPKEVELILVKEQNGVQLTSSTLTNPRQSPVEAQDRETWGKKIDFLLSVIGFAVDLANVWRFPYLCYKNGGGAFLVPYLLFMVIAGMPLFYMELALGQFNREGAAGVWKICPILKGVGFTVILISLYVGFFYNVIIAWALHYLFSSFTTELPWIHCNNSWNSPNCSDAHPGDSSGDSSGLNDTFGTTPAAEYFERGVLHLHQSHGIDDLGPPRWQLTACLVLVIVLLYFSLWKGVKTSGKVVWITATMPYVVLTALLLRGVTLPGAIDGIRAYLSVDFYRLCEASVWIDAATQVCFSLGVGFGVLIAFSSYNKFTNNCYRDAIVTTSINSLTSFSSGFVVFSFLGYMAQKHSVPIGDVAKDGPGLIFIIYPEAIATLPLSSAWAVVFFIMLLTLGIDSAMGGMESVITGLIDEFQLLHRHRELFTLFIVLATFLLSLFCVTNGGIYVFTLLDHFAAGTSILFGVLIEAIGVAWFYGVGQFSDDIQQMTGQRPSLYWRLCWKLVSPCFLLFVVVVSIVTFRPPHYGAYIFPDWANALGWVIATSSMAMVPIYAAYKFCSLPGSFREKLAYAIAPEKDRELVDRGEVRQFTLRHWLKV
Experimental: (§1) FIGS. 3A-3L. Monoamine transporters interact with ASP^+. Like HEK-hNET cells hDAT and hSERT transfected cells accumulate ASP^+. hNET (FIGS. 3A, 3B & 3C), hDAT (FIGS. 3D, 3E & 3F), hSERT (FIGS. 3G, 3H & 3I) and HEK-293 (FIGS. 3J, 3K & 3L) were exposed to 2 mM ASP for the times indicated in FIGS. 3J, 3K & 3L. The color gradient represented in FIG. 3J denotes the corresponding ASP^+ intensity values.
(§2) HEK-hNET cells were plated on 35 mm glass bottom Petri-dishes (MatTek, Ashland, Mass.) coated with poly-L-lysine three days prior to experimentation. The culture medium was aspirated, cells were immediately mounted on a Zeiss 410 confocal microscope and the microscope was focused on the center of the monolayer of cells. During the confocal measurment cells remain without buffer for approximately thirty seconds. Background autoflourescence was established by collecting images for ten seconds prior to the addition of KRH (see Radiolabeled Transport),[…] Glucose, 10 μM ascorbic acid, 10 μM pargalyine, 10 μM tropolone (Sigma, Boulder CO), and ASP^+. […] The effects of photobleaching on ASP^+ accumulation were determined by examining the rate of ASP^+ fluorescence at various acquisition rates. […]
(§3) The fluorescent images were processed using MetaMorph imaging software (Universal Imaging Corporation, Downington Pa.). […] All cells are subtracted against auto-fluorescence.

[4] = target: T1, NET; experiment: Fluorescence anisotropy of ASP+ in HEK-hNET cells; type: cell-based; design: expressed in transfected cells
Experimental: To evaluate ASP^+ binding to the surface membranes, HEK-hNET cells were exposed to 2 μM ASP^+ with horizontal polarizer (FIG. 5C), with the polarizer rapidly switching to the vertical position. Cells were imaged with alternating polarizations for 3 minutes to measure light intensity in the horizontal (Ih) and vertical (Iv) positions in order to calculate the anisotropy ratio, r=(Iv−gIh)/(Iv+2 g Ih). The factor g was determined by using a half wave plate as described by Blackman et al. (1996). In this formulation, r =0.4 implies an immobile source (Smith et al., 1999). Surface anisotropy was measured from the cell circumference, taken as 1 pixel width. Cytosolic anisotropy was measured near the center of the cell, approximately 5 pixel widths from the membrane.
Notice that rapid accumulation, which peaks at the cell edges (arrows), remains essentially constant between 3 and 180 sec., whereas brightness at the cell center (between arrows) gradually increases over this same period. Furthermore, accumulation at the center occurs at the same rate as phase II (compare phase II slope in FIG. 4 with center elevation in FIG. 5A). […] To test this interpretation the inventors measured the anisotropy of light from cell edges and cell centers.

[5] = target: T2, SERT (Homo sapiens, UniProt P31645); experiment: ASP+ accumulation in hSERT-transfected HEK cells by confocal fluorescence microscopy; type: cell-based; conditions: 2 mM ASP as printed in the FIG. 3 legend
T2 construct: expressed in transfected cells
T2 sequence (P31645 whole entry): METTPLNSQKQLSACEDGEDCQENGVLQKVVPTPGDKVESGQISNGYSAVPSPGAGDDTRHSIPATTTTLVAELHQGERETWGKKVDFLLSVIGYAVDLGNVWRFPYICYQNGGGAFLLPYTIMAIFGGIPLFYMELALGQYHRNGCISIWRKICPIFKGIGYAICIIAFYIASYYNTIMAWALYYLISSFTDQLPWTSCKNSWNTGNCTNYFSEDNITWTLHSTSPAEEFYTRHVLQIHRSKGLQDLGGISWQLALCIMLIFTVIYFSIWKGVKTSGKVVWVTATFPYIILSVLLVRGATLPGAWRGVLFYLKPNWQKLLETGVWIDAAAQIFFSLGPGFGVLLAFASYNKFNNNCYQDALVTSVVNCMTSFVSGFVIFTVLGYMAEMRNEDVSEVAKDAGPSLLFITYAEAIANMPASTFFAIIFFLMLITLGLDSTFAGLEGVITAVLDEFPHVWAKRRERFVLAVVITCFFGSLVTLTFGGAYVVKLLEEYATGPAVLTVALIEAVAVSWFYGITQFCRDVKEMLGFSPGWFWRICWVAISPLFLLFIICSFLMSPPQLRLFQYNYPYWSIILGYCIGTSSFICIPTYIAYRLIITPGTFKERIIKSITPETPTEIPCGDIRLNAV
Experimental: as §1, §2, §3

T1 sequence (P23975 whole entry): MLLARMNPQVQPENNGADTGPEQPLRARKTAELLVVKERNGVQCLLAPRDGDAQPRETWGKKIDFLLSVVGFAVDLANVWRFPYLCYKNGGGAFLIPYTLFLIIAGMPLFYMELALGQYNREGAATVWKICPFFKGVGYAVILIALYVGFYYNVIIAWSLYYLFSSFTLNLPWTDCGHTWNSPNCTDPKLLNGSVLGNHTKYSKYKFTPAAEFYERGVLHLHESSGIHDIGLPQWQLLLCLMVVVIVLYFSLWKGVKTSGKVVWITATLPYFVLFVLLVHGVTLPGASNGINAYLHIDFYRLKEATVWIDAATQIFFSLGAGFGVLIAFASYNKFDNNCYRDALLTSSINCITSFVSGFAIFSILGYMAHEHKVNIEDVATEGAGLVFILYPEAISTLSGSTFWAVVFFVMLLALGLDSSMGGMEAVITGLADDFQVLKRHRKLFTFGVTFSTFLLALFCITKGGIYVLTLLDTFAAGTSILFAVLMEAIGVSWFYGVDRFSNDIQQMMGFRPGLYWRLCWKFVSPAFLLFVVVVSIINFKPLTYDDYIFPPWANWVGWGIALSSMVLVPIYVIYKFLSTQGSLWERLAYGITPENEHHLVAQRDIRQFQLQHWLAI

CN(C)c1ccc(C=Cc2cc[n+](C)cc2)cc1 [ASP^+, 4-(4-dimethylaminostyrl)-N-methylpyridinium]
concentration-response of ASP+ accumulation, NET [1]: concentration-dependent accumulation | ASP+ accumulation by cells expressing NET ([2]; 800 nM ASP+, images at 0, 3 and 180 seconds): accumulate | Phase I n ([2]; exponent n of the phase I fit): 1.15±0.30 | Phase II n ([2]; exponent n of the phase II fit): 1.51±0.35 | Phase I Vmax ([2]; phase I (ASP+ binding) slope as a function of ASP+ concentration): 10.5±0.94 AFUs/sec | potency of ASP+ accumulation for hNET ([2]; summary statement): sub-μM potency | ASP+ accumulation by hDAT transfected cells [3]: accumulate | fluorescence anisotropy, solution ASP+ [4]: 0.15 | ASP+ accumulation by hSERT transfected cells [5]: accumulate
